Data reported in patent US8546401B2, “5,6-disubstituted oxindole-derivatives and use thereof for treating vasopressin-dependent diseases” (AbbVie Deutschland GmbH & Co. KG, priority 2007, dated 2013).

Columns and labels:
[1] = molecular target: T1, human vasopressin V1b receptor (Homo sapiens, UniProt P47901); experiment: Vasopressin V1b receptor binding assay; details: CHO-K1 membranes, 3H-AVP displacement
T1 construct: expressed in transfected cells; host or cells: CHO-K1 (cell line hV1b_3H2_CHO), membrane preparation
T1 sequence (P47901 1-424): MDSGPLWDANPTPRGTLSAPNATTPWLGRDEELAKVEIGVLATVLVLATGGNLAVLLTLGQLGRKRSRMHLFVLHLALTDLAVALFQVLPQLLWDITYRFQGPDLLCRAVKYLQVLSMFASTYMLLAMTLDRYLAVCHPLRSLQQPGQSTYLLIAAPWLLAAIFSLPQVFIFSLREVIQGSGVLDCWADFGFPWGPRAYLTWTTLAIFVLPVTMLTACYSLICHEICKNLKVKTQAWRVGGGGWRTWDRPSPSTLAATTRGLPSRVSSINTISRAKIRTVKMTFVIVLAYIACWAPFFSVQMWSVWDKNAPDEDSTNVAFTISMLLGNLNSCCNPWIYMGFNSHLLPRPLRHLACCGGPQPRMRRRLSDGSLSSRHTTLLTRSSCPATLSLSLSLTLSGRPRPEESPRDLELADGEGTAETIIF
Procedure: 1. Vasopressin V1b Receptor Binding Assay:
The test substances were dissolved in a concentration of 10^−2 M in DMSO and further diluted to 5×10^−4 M to 5×10^−3 M. These serial DMSO predilutions were diluted 1:10 with assay buffer. The substance concentration was further diluted 1:5 in the assay mixture (2% DMSO in the mixture).
(§1) CHO-K1 cells with stably expressed human vasopressin V1b receptor (clone 3H2) were harvested and homogenized in 50 mM Tris-HCl and in the presence of protease inhibitors (Roche complete Mini #1836170) using a Polytron homogenizer at intermediate setting for 2×10 seconds, and subsequently centrifuged at 40 000×g for 1 h. The membrane pellet was again homogenized and centrifuged as described and subsequently taken up in 50 mM Tris-HCl, pH 7.4, homogenized and stored in aliquots frozen in liquid nitrogen at −190° C.
(§2) The binding assay was carried out by the method based on that of Tahara et al. (Tahara A et al., Brit. J. Pharmacol. 125, 1463-1470 (1998)).
(§3) The incubation buffer was: 50 mM Tris, 10 mM MgCl2, 0.1% BSA, pH 7.4.
In the assay mixture (250 μl), membranes (50 μg/ml protein in incubation buffer) from CHO-K1 cells with stably expressed human V1b receptors (cell line hV1b—3H2_CHO) were incubated with 1.5 nM ^3H-AVP (8-Arg-vasopressin, PerkinElmer #18479) in incubation buffer (50 mM Tris, 10 mM MgCl2, 0.1% BSA, pH 7.4) (total binding) or additionally with increasing concentrations of test substance (displacement experiment). The nonspecific binding was determined with […] (Bachem #H1780). All determinations were carried out as triplicate determinations. After incubation (60 minutes at room temperature), the free radioligand was filtered off by vacuum filtration (Skatron cell harvester 7000) through Wathman GF/B glass fiber filter mats, and the filters were transferred into scintillation vials. The liquid scintillation measurement took place in a model 2000 or 2200CA Tricarb instrument (Packard). Conversion of the measured cpm into dpm was carried out with the aid of a standard quench series.
(§4) The binding parameters were calculated by nonlinear regression in SAS. The algorithms of the program operate in analogy to the LIGAND analysis program (Munson P J and Rodbard D, Analytical Biochem. 107, 220-239 (1980)). The Kd of ^3H-AVP for the recombinant human V1b receptors is 0.4 nM and was used to determine the Ki.

[2] = molecular target: T2, human vasopressin V1a receptor (Homo sapiens, UniProt P37288); experiment: Vasopressin V1a receptor binding assay; details: selectivity quotient, human receptors
T2 construct: expressed in transfected cells; host or cells: CHO-K1 (cell line hV1a_5_CHO), membrane preparation
T2 sequence (P37288 whole entry): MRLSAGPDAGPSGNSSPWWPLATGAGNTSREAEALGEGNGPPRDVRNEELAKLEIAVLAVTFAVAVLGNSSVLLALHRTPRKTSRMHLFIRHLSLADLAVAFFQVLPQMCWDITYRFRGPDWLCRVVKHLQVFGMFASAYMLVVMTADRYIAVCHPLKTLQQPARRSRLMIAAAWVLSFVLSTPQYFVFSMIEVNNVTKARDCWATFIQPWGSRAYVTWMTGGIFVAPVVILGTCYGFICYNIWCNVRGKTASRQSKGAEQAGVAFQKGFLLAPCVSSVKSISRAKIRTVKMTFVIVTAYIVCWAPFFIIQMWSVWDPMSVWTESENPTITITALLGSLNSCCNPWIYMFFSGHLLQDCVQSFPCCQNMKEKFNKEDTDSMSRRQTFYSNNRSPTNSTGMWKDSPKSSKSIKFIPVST
Procedure: 2. Vasopressin V1a Receptor Binding Assay:
The test substances were dissolved in a concentration of 10^−2 M in DMSO. Further dilution of these DMSO solutions took place in incubation buffer (50 mM Tris, 10 mM MgCl2, 0.1% BSA, pH 7.4).
as §1, with “V1a” for “V1b”, “5)” for “3H2)”
as §2, §3
In the assay mixture (250 μl), membranes (20 μg/ml protein in incubation buffer) from CHO-K1 cells with stably expressed human V1a receptors (cell line hV1a—5_CHO) were incubated with 0.04 nM ^125I-AVP (8-Arg-vasopressin, NEX 128) in incubation buffer (50 mM Tris, 10 mM MgCl2, 0.1% BSA, pH 7.4) (total binding) or additionally with increasing concentrations of test substance (displacement experiment). The nonspecific binding was determined with 1 μM AVP (Bachem #H1780). Triplicate determinations were carried out.
After incubation (60 minutes at room temperature), the free radioligand was filtered off by vacuum filtration (Skatron cell harvester 7000) through Wathman GF/B glass fiber filter mats, and the filters were transferred into scintillation vials.
The liquid scintillation measurement took place in a model 2000 or 2200CA Tricarb instrument (Packard). Conversion of the measured cpm into dpm was carried out with the aid of a standard quench series.
as §4, with “^125I-AVP” for “^3H-AVP”, “hV1a” for “human V1b”, “was determined in saturation experiments. A Kd of 1.33” for “is 0.4”, “nM” for “nM and”

human oxytocin receptors = molecular target: T3, human oxytocin receptors (Homo sapiens, UniProt P30559); experiment: Oxytocin receptor binding assay; details: selectivity quotient
T3 construct: expressed in transfected cells; host or cells: HEK-293, transient expression; lysed and homogenized cells
T3 sequence (P30559 1-389): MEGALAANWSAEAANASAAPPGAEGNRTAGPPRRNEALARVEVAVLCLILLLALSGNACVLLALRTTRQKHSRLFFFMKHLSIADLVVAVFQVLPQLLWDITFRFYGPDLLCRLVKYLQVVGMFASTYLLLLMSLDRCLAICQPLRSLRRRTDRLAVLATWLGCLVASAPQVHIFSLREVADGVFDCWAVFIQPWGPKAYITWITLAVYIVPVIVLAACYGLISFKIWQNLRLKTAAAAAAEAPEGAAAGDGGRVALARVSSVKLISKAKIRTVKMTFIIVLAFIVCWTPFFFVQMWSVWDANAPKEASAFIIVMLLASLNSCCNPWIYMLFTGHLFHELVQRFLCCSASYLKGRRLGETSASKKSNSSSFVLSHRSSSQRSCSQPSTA
Procedure: 4. Oxytocin Receptor Binding Assay
The substances were dissolved in a concentration of 10^−2 M in DMSO and diluted with incubation buffer (50 mM Tris, 10 mM MgCl2, 0.1% BSA, pH 7.4).
Confluent HEK-293 cells with transiently expressing recombinant human oxytocin receptors were centrifuged at 750×g at room temperature for 5 minutes. The residue was taken up in ice-cold lysis buffer (50 mM Tris-HCl, 10% glycerol, pH 7.4 and Roche complete protease inhibitor) and subjected to an osmotic shock at 4° C. for 20 minutes. The lyzed cells were then centrifuged at 750×g at 4° C. for 20 minutes, the residue was taken up in incubation buffer, and aliquots of 10^7 cells/ml were prepared. The aliquots were frozen at −80° C. until used.
On the day of the experiment, the cells were thawed, diluted with incubation buffer and homogenized using a Multipette Combitip (Eppendorf, Hamburg). The reaction mixture of 0.250 ml was composed of 2 to 5×10^4 recombinant cells, 3-4 nM ^3H-oxytocin (PerkinElmer, NET 858) in the presence of test substance (inhibition plot) or only incubation buffer (total binding). The nonspecific binding was determined with 10^−6 M oxytocin (Bachem AG, H2510). Triplicate determinations were set up. Bound and free radioligand were separated by filtration under vacuum with Whatman GF/B glass fiber filters with the aid of a Skatron cell harvester 7000. The bound radioactivity was determined by liquid scintillation measurement in a Tricarb Beta counter, model 2000 or 2200CA (Packard).
The binding parameters were calculated by nonlinear regression analysis (SAS) in analogy to the LIGAND program of Munson and Rodbard (Analytical Biochem 1980; 107: 220-239). The Kd of ^3H-oxytocin for the recombinant hOT receptors is 7.6 nM and was used to determine the Ki.

**Q.** CCOc1ncccc1C1(NC(=O)N2CCN(C3CCN(C)CC3)CC2)C(=O)N(S(=O)(=O)c2ccc(OC)cc2OC)c2cc(F)c(Cl)cc21 (stereo not drawn) [Example 19, 4-(1-Methylpiperidin-4-yl)piperazine-1-[5-chloro-1-(2,4-dimethoxyphenylsulfonyl)-3-(2-ethoxypyridin-3-yl)-6-fluoro-2-oxo-2,3-dihydro-1H-indol-3-yl]carboxamide] was tested. Which Ki [1] did it give?
**A.** The Ki was < 1 nM.

**Q.** What about the “Ki(h − V1a)/Ki(h − V1b)*” value [2] of the same molecule?
**A.** The value was “++ (25-75)”.

**Q.** What about the “Ki(h − OT)/Ki(h − V1b)*” value (human oxytocin receptors) of the same molecule?
**A.** The value was “++ (25-75)”.

**Q.** With CCOc1ncccc1C1(NC(=O)N2CCN(C3CCN(C)CC3)CC2)C(=O)N(S(=O)(=O)c2ccccc2)c2cc(F)c(Cl)cc21 (stereo not drawn) [Example 20, 4-(1-Methylpiperidin-4-yl)piperazine-1-[1-phenylsulfonyl-5-chloro-3-(2-ethoxypyridin-3-yl)-6-fluoro-2-oxo-2,3-dihydro-1H-indol-3-yl]carboxamide] as the molecule, how does the Ki [1] read?
**A.** The Ki was 1 to 10 nM.

**Q.** What about the “Ki(h − V1a)/Ki(h − V1b)*” value [2] of the same molecule?
**A.** Its value is “+ (10-<25)”.

**Q.** What about the “Ki(h − OT)/Ki(h − V1b)*” value (human oxytocin receptors) of the same molecule?
**A.** Its value is “++ (25-75)”.

**Q.** Which results are given for CCOc1ncccc1C1(NC(=O)N2CCN(C3CCN(CC)CC3)CC2)C(=O)N(S(=O)(=O)c2ccc(OC)cc2OC)c2cc(F)c(Cl)cc21 (stereo not drawn) [Example 21, 4-(1-Ethylpiperidin-4-yl)piperazine-1-[5-chloro-1-(2,4-dimethoxyphenylsulfonyl)-3-(2-ethoxypyridin-3-yl)-6-fluoro-2-oxo-2,3-dihydro-1H-indol-3-yl]carboxamide]?
**A.** Ki [1]: < 1 nM; Ki(h − V1a)/Ki(h − V1b)* [2]: ++ (25-75); Ki(h − OT)/Ki(h − V1b)* (human oxytocin receptors): +++ (>75)

**Q.** Which Ki [1] does the source give for CCOc1ncccc1C1(NC(=O)N2CCN(C3CCN(CC)CC3)CC2)C(=O)N(S(=O)(=O)c2ccccc2)c2cc(F)c(Cl)cc21 (stereo not drawn) [Example 22, 4-(1-Ethylpiperidin-4-yl)piperazine-1-[1-phenylsulfonyl-5-chloro-3-(2-ethoxypyridin-3-yl)-6-fluoro-2-oxo-2,3-dihydro-1H-indol-3-yl]carboxamide] here?
**A.** Its Ki is 1 to 10 nM.

**Q.** What about the “Ki(h − V1a)/Ki(h − V1b)*” value [2] of the same molecule?
**A.** The value was “+ (10-<25)”.

**Q.** What about the “Ki(h − OT)/Ki(h − V1b)*” value (human oxytocin receptors) of the same molecule?
**A.** Its value is “+++ (>75)”.

**Q.** CCOc1ncccc1C1(NC(=O)N2CCC(N3CCN(C)CC3)CC2)C(=O)N(S(=O)(=O)c2ccc(OC)cc2OC)c2cc(F)c(Cl)cc21 (stereo not drawn) [Example 23, 4-(4-Methylpiperazin-1-yl)piperidine-1-[5-chloro-1-(2,4-dimethoxyphenylsulfonyl)-3-(2-ethoxypyridin-3-yl)-6-fluoro-2-oxo-2,3-dihydro-1H-indol-3-yl]carboxamide] was tested. Which Ki [1] did it give?
**A.** The Ki was < 1 nM.

**Q.** And the “Ki(h − V1a)/Ki(h − V1b)*” value [2]?
**A.** Its value is “+ (10-<25)”.

**Q.** And the “Ki(h − OT)/Ki(h − V1b)*” value (human oxytocin receptors)?
**A.** Its value is “+++ (>75)”.

**Q.** What does the source list for CCOc1ncccc1C1(NC(=O)N2CCC(C3CCN(C)CC3)CC2)C(=O)N(S(=O)(=O)c2ccc(OC)cc2OC)c2cc(F)c(Cl)cc21 (stereo not drawn) [Example 26, 1′-Methyl[4,4′]bipiperidinyl-1-[5-chloro-1-(2,4-dimethoxyphenylsulfonyl)-3-(2-ethoxy-pyridin-3-yl)-6-fluoro-2-oxo-2,3-dihydro-1H-indol-3-yl]carboxamide]?
**A.** Ki [1]: < 1 nM; Ki(h − V1a)/Ki(h − V1b)* [2]: + (10-<25); Ki(h − OT)/Ki(h − V1b)* (human oxytocin receptors): +++ (>75)

**Q.** What does the source list for CCOc1ncccc1C1(NC(=O)N2CCN(C3CCN(C)CC3)CC2)C(=O)N(S(=O)(=O)c2ccc(OC)cc2OC)c2cc(F)c(F)cc21 (stereo not drawn) [Example 31, 4-(1-Methylpiperidin-4-yl)piperazine-1-[1-(2,4-dimethoxyphenylsulfonyl)-3-(2-ethoxy-pyridin-3-yl)-5,6-difluoro-2-oxo-2,3-dihydro-1H-indol-3-yl]carboxamide]?
**A.** Ki [1]: 10 to 100 nM; Ki(h − V1a)/Ki(h − V1b)* [2]: +++ (>75); Ki(h − OT)/Ki(h − V1b)* (human oxytocin receptors): + (10-<25)

**Q.** CCOc1ncccc1C1(NC(=O)N2CCN(C3CCN(CC)CC3)CC2)C(=O)N(S(=O)(=O)c2ccc(OC)cc2OC)c2cc(F)c(F)cc21 (stereo not drawn) [Example 33, 4-(1-Ethylpiperidin-4-yl)piperazine-1-[1-(2,4-dimethoxyphenylsulfonyl)-3-(2-ethoxy-pyridin-3-yl)-5,6-difluoro-2-oxo-2,3-dihydro-1H-indol-3-yl]carboxamide] was tested. Which Ki [1] did it give?
**A.** The Ki was 1 to 10 nM.

**Q.** What about the “Ki(h − V1a)/Ki(h − V1b)*” value [2] of the same molecule?
**A.** Its value is “+++ (>75)”.

**Q.** What about the “Ki(h − OT)/Ki(h − V1b)*” value (human oxytocin receptors) of the same molecule?
**A.** The value was “+++ (>75)”.
